Reference: US11697648B2, “Fused pyrimidine pyridinone compounds as JAK inhibitors” (THERAVANCE BIOPHARMA R&D IP, LLC, priority 2019, dated 2023)

Assays:
JAK3 = JAK3 (Homo sapiens (Human), UniProt P52333); test: Biochemical JAK3 kinase assay (LanthaScreen)
Procedure, shortened: (§1)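 GST-JAK + GFP-STAT1 peptide, HEPES pH 7.5/MgCl2/EGTA/Brij-35 buffer; cpd preincubation 1 h RT; ATP start, 1 h RT; stop with 10 mM EDTA + 2 nM Tb-anti-pSTAT1; TR-FRET 520/495. 4-parameter IC50 → pKi (Cheng-Prusoff).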

JAK1 = JAK1 (Homo sapiens (Human), UniProt P23458); test: Biochemical JAK1 kinase assay (LanthaScreen)
Procedure, shortened: as §1

Tyk2 = Tyk2 (Homo sapiens (Human), UniProt P29597); test: Biochemical Tyk2 kinase assay (LanthaScreen)
Procedure, shortened: as §1

JAK2 = JAK2 (Homo sapiens (Human), UniProt O60674); test: Biochemical JAK2 kinase assay (LanthaScreen)
Procedure, shortened: as §1

[1] = tested on: IL-2 stimulated STAT5 phosphorylation in Tall-1 human T cell line (JAK3); test: Cellular JAK3 potency assay: inhibition of IL-2 stimulated pSTAT5 in Tall-1 T cells; format: cell-based
Procedure, shortened: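 Tall-1 cells, 45,000 per well, preincubated 1 hour with compound at 37 °C, then stimulated 30 minutes with IL-2 at 300 ng/ml final. pSTAT5 (Tyr694/699) in lysates quantified by AlphaLISA SureFire Ultra. pIC50 derived from inhibition curves, given as mean with SD.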

[2] = selectivity JAK3 over JAK1, difference of pKi
[3] = IL-2 stimulated pSTAT5, Tall-1 T cells
[4] = selectivity, difference of pKi values
[5] = IL-2 stimulated pSTAT5 in Tall-1 T cells

JAK2, sequence (O60674 whole entry): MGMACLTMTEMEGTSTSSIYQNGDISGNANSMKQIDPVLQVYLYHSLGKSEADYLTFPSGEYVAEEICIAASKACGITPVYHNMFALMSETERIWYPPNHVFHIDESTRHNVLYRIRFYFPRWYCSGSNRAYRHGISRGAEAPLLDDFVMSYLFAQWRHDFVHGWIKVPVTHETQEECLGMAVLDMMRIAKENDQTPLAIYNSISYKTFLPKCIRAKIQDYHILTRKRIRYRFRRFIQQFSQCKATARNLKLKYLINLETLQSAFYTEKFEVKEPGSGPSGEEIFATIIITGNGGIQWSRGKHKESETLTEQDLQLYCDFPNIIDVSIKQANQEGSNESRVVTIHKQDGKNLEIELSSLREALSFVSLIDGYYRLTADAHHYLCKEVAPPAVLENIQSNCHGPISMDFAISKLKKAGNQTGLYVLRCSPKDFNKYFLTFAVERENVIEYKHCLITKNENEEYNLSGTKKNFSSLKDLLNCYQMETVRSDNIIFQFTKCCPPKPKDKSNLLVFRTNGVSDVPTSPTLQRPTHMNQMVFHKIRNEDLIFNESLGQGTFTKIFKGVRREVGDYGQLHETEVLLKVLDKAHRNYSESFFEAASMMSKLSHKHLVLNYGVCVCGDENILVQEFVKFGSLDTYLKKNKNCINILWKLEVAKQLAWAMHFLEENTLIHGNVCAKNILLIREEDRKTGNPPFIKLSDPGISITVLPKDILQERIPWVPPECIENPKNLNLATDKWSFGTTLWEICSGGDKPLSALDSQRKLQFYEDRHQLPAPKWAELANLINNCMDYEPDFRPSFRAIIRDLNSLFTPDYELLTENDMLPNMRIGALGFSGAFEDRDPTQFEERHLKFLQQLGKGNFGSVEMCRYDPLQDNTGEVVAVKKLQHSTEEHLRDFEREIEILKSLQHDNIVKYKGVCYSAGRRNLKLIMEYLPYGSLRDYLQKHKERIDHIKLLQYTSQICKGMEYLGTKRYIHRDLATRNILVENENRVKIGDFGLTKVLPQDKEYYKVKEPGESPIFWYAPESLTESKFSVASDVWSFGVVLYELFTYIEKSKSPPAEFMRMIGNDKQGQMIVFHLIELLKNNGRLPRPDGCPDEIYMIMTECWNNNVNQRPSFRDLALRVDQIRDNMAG
JAK1, sequence (P23458 whole entry): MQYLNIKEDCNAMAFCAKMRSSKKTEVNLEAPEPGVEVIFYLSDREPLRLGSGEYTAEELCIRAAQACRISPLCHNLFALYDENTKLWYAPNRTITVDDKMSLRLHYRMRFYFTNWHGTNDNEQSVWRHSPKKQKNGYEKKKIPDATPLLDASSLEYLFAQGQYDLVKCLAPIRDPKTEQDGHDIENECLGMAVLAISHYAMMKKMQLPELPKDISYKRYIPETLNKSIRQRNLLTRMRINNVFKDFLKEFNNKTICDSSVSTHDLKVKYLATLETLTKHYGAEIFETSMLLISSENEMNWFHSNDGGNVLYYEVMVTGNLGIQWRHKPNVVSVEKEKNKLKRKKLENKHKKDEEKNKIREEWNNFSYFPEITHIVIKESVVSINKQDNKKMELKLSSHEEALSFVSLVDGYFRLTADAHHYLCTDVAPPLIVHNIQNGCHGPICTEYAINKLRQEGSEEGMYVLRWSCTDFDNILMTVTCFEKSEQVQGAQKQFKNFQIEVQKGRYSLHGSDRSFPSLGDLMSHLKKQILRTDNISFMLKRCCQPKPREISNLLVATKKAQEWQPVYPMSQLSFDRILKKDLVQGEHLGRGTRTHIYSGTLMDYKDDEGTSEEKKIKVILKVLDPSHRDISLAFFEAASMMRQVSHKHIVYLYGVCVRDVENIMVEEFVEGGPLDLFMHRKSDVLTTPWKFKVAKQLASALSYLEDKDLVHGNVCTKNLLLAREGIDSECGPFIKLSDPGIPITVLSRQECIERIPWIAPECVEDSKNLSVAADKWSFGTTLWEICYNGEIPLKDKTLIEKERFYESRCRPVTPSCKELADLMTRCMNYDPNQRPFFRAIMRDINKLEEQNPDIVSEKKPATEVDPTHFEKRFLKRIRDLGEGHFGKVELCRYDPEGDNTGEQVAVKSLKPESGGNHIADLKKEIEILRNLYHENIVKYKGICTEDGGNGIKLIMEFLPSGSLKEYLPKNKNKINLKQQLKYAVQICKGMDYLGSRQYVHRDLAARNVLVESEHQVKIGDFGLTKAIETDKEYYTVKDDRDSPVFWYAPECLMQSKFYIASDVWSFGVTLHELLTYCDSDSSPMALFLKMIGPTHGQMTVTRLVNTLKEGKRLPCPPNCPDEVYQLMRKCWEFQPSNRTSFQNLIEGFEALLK
JAK3, sequence (P52333 whole entry): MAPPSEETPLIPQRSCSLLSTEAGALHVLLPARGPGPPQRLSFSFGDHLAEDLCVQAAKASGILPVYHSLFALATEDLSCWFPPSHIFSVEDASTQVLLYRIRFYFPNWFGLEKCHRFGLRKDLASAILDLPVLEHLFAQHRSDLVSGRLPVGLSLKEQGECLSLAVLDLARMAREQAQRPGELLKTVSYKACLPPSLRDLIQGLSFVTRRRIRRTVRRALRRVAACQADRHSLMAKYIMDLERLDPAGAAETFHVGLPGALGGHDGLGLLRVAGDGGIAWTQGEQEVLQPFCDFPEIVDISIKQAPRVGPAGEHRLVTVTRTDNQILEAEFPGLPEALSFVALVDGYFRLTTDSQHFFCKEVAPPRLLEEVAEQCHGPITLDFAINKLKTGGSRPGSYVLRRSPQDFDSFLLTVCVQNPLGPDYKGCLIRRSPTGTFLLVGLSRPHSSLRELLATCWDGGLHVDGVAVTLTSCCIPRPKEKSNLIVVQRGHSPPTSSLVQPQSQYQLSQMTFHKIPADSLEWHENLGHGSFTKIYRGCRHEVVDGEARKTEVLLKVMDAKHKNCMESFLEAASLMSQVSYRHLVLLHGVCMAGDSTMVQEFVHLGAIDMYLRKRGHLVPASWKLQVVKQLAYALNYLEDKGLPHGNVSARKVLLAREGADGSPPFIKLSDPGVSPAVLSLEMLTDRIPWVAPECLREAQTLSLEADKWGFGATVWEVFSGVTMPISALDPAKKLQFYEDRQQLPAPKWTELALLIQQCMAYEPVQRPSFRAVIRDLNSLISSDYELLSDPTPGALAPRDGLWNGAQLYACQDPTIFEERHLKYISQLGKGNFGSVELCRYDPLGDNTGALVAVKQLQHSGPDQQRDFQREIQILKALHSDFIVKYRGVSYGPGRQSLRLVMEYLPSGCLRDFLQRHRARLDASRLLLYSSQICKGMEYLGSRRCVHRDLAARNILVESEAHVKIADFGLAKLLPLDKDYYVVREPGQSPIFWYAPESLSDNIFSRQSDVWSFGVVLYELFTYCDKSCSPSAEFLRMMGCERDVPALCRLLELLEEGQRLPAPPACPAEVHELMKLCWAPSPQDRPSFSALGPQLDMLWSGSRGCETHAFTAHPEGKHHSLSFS
Tyk2, sequence (P29597 whole entry): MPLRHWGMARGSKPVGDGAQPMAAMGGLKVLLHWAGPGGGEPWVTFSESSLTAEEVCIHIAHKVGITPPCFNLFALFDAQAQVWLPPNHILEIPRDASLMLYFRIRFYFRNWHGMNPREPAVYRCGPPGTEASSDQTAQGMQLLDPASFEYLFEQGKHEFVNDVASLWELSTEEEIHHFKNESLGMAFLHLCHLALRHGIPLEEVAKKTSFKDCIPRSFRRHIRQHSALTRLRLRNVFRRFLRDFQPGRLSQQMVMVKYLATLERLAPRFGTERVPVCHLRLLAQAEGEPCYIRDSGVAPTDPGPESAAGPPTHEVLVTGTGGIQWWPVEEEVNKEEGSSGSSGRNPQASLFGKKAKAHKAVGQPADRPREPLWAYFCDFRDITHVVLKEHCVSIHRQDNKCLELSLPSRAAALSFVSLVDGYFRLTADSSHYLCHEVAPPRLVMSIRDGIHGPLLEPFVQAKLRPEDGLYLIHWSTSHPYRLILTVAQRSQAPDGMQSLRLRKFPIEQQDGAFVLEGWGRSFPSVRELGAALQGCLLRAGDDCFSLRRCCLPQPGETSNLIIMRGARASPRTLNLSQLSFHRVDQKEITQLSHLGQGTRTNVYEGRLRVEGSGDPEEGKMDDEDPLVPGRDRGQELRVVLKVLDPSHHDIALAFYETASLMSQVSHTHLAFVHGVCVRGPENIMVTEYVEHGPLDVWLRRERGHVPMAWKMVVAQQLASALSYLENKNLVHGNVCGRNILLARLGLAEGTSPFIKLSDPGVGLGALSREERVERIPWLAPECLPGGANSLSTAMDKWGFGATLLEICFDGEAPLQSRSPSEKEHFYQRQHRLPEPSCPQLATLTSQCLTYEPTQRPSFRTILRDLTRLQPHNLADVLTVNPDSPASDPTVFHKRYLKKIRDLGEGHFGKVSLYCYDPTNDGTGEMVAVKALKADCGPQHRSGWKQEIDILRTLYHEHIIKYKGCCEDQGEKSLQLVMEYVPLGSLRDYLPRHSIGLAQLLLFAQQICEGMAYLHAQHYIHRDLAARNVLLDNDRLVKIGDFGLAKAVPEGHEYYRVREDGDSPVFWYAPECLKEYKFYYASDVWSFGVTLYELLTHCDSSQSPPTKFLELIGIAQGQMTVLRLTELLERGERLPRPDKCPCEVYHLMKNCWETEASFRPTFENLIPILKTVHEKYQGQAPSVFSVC

Structure (SMILES)	JAK 3 (pKi) (JAK3)	JAK3 (pKi)-JAK1 (pKi) (JAK3; [2])	JAK 1 (pKi) (JAK1)	Tyk 2 (pKi) (Tyk2)	JAK 2 (pKi) (JAK2)	Tall-1 (pIC50) [1, 3]	JAK3 (pKi)-JAK1 (pKi) (JAK3; [4])	Tall-1 (pIC50) [1, 5]
C=CC(=O)N1CC(CCn2c(=O)ccc3cnc(Nc4ccc(-n5ccnc5)cc4)nc32)C1 [Example 73]	C (C represents a pKi value between 8 and 9 (Ki between 10 nM and 1 nM))	B (B represents a value of 2.5 to 3)	E (E represents a pKi value of 7 or below (Ki of 100 nM or above))	E (E represents a pKi value of 7 or below (Ki of 100 nM or above))	E (E represents a pKi value of 7 or below (Ki of 100 nM or above))	C (C represents a pIC50 value between 6 and 6.7 (IC50 between 1 μM and 200 nM))	–	–
C=CC(=O)N1CC(CCn2c(=O)ccc3cnc(Nc4ccc(N5CCSCC5)c(F)c4)nc32)C1 [Example 53]	B (B represents pKi value between 9 and 10 (Ki between 1 nM and 0.1 nM))	A (A represents a value of 3 or above)	E (E represents a pKi value of 7 or below (Ki of 100 nM or above))	E (E represents a pKi value of 7 or below (Ki of 100 nM or above))	E (E represents a pKi value of 7 or below (Ki of 100 nM or above))	B (B represents a pC50 value between 6.7 (included) and 7.5 (IC50 between 200 nM and 32 nM))	–	–
C=CC(=O)N1CC(CCn2c(=O)ccc3cnc(Nc4ccn(C)n4)nc32)C1 [Example 226]	B (B represents pKi value between 9 and 10 (Ki between 1 nM and 0.1 nM))	A (A represents a value of 3 or above)	E (E represents a pKi value of 7 or below (Ki of 100 nM or above))	E (E represents a pKi value of 7 or below (Ki of 100 nM or above))	E (E represents a pKi value of 7 or below (Ki of 100 nM or above))	C (C represents a pIC50 value between 6 and 6.7 (IC50 between 1 μM and 200 nM))	–	–
C=CC(=O)N1CC(CCn2c(=O)ccc3cnc(Nc4cccc(N5CCCCC5)c4)nc32)C1 [Example 68]	B (B represents pKi value between 9 and 10 (Ki between 1 nM and 0.1 nM))	A (A represents a value of 3 or above)	E (E represents a pKi value of 7 or below (Ki of 100 nM or above))	E (E represents a pKi value of 7 or below (Ki of 100 nM or above))	E (E represents a pKi value of 7 or below (Ki of 100 nM or above))	C (C represents a pIC50 value between 6 and 6.7 (IC50 between 1 μM and 200 nM))	–	–
C=CC(=O)N1CC(CCn2c(=O)ccc3cnc(Nc4ccc(N(C)CCO)cc4)nc32)C1 [Example 224]	B (B represents pKi value between 9 and 10 (Ki between 1 nM and 0.1 nM))	A (A represents a value of 3 or above)	E (E represents a pKi value of 7 or below (Ki of 100 nM or above))	E (E represents a pKi value of 7 or below (Ki of 100 nM or above))	E (E represents a pKi value of 7 or below (Ki of 100 nM or above))	B (B represents a pC50 value between 6.7 (included) and 7.5 (IC50 between 200 nM and 32 nM))	–	–
C=CC(=O)N1CCN(CCn2c(=O)ccc3cnc(Nc4cnn(CC(F)F)c4)nc32)[C@@H](C)C1 [Example 232]	A (A represents a pKi value≥10 (Ki≤0.1 nM))	A (A represents a value of 3 or above)	E (E represents a pKi value of 7 or below (Ki of 100 nM or above))	E (E represents a pKi value of 7 or below (Ki of 100 nM or above))	E (E represents a pKi value of 7 or below (Ki of 100 nM or above))	B (B represents a pC50 value between 6.7 (included) and 7.5 (IC50 between 200 nM and 32 nM))	–	–
C=CC(=O)N1CCN(CCn2c(=O)ccc3cnc(Nc4cnn(CC)c4)nc32)[C@@H](C)C1 [Example 243]	B (B represents pKi value between 9 and 10 (Ki between 1 nM and 0.1 nM))	–	E (E represents a pKi value of 7 or below (Ki of 100 nM or above))	E (E represents a pKi value of 7 or below (Ki of 100 nM or above))	E (E represents a pKi value of 7 or below (Ki of 100 nM or above))	–	A (A represents a value of 3 or above)	B (B represents a pC50 value between 6.7 (included) and 7.5 (IC50 between 200 nM and 32 nM))
C=CC(=O)N1CCN(CCn2c(=O)ccc3cnc(Nc4cnn(CC)c4)nc32)[C@@H](CC)C1 [Example 242]	B (B represents pKi value between 9 and 10 (Ki between 1 nM and 0.1 nM))	–	E (E represents a pKi value of 7 or below (Ki of 100 nM or above))	E (E represents a pKi value of 7 or below (Ki of 100 nM or above))	E (E represents a pKi value of 7 or below (Ki of 100 nM or above))	–	A (A represents a value of 3 or above)	B (B represents a pC50 value between 6.7 (included) and 7.5 (IC50 between 200 nM and 32 nM))
